The text below walks through data of patent publication US6469028B1, “Synthesis and use of retinoid compounds having negative hormone and/or anatgonist activities” (Allergan, Inc., priority 1995, dated 2002).

The test system of one assay is RXRβ. The experiment in a line: Holoreceptor transactivation assay. It counts as cell-based. As to conditions: relative to all trans retinoic acid. The text has this:
(§1) A holoreceptor transactivation assay and a ligand binding assay which measure the antagonist/agonist like activity of the compounds of the invention, or their ability to bind to the several retinoid receptor subtypes, respectively, are described in published PCT Application No. WO93/11755 (particularly on pages 30-33 and 37-41) published on Jun. 24, 1993, the specification of which is also incorporated herein by reference. A description of the holoreceptor transactivation assay is also provided below.
(§2) CV1 cells (5,000 cells/well) were transfected with an RAR reporter plasmid MTV-TREp-LUC (50 ng) along with one of the RAR expression vectors (10 ng) in an automated 96-well format by the calcium phosphate procedure of Heyman et al. Cell 68: 397-406. For RXR-α and RXR-γ transactivation assays, an RXR-responsive reporter plasmid CRBPII-tk-LUC (50 ng) along with the appropriate RXR expression vectors (10 ng) was used substantially as described by Heyman et al. above, and Allegretto et al. J. Biol. Chem. 268: 26625-26633. For RXR-β transactivation assays, an RXR-responsive reporter plasmid CPRE-tk-LUC ([…]) along with RXR-β expression vector ([…]) was used as described in above. These reporters contain DRI elements from human CRBPII and certain DRI elements from promotor, respectively (see Mangelsdorf et al. The Retinoids: Biology Chemistry and Medicine, pp. 319-349, Raven Press Ltd., New York and Heyman et al., cited above). A β-galactosidase (50 ng) expression vector was used as an internal control in the transfections to normalize for variations in transfection efficiency. The cells were transfected in triplicate for 6 hours, followed by incubation with retinoids for 36 hours, and the extracts were assayed for luciferase and […] activities. The detailed experimental procedure for holoreceptor transactivations has been described in Heyman et al. above, and Allegretto et al. cited above. The results obtained in this assay are expressed in EC50 numbers, as they are also in the chimeric receptor transactivation assay. The Heyman et al. Cell 68: 397-406, Allegretto et al. J. Biol. Chem. 268: 26625-26633, and Mangelsdorf et al. The Retinoids: Biology, Chemistry, and Medicine, pp. 319-349, Raven Press Ltd., New York, are expressly incorporated herein by reference. The results of ligand binding assay are expressed in Kd numbers. (See Cheng et al. Biochemical Pharmacology 22: 3099-3108, expressly incorporated herein by reference.)

The target in the next assay is T1, RXRγ (Mus musculus, UniProt P28705).
T1 construct: expressed in transfected cells; host or cells: CV1 cells
T1 sequence (P28705 1-463): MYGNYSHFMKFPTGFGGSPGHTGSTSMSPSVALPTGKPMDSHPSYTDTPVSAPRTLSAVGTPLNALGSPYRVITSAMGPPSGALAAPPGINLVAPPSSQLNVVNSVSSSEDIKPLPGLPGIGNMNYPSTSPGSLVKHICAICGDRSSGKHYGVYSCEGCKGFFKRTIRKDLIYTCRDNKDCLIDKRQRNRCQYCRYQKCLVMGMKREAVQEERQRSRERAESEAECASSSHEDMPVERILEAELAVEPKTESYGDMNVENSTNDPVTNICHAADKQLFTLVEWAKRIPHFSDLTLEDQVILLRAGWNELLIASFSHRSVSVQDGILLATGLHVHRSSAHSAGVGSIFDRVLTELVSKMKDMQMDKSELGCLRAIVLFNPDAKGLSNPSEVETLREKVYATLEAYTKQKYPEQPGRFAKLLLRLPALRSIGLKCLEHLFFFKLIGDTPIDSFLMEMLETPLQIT
The experiment in a line: Holoreceptor transactivation assay. The assay is classed as cell-based. As to conditions: relative to all trans retinoic acid; read-out: Transactivation Assay Efficacy (% of RA activity) RXRγ.
Text: as §1, §2

Another assay concerns the target T2, RARγ (Homo sapiens, UniProt P13631).
T2 sequence (P13631 1-454): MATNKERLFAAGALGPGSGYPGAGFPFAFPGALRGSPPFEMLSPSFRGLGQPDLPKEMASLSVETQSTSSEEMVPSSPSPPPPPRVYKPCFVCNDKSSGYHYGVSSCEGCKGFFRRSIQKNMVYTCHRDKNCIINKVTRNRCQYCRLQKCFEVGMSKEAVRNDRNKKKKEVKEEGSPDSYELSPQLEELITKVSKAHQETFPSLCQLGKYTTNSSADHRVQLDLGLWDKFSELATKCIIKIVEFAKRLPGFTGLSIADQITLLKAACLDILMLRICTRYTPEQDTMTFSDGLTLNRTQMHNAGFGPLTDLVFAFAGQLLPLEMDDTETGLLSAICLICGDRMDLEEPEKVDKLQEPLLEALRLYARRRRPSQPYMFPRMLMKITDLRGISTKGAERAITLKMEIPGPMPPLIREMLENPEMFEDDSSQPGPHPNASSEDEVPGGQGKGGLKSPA
The experiment in a line: Ligand binding assay. Set-up: expressed in transfected cells; host or cells: CV1 cells. The following applies: read-out: Kd (nanomolar) RARγ.
Text: as §1
as §2, with “reference.) […]” for “reference.)”

Consider `CC(C)(C)c1ccc(C2=CCC(C)(C)c3ccc(C#Cc4ccc(C(=O)O)cc4)cc32)cc1` [Compound 61, 4-[(5,6-Dihydro-5,5-dimethyl-8-(4-(1,1-dimethylethyl)phenyl)-2-naphthalenyl)ethynyl]benzoic acid], for which, in the assay with RXRβ, the “Transactivation Assay Efficacy (% of RA activity) RXRβ” value is given as 0.00 % of RA activity. The Emax at RXRγ came to 3%. Also, at RARγ, the Kd worked out at 16 nM.
The matching figures for `CC1(C)CC=C(c2ccccn2)c2cc(C#Cc3ccc(C(=O)O)cc3)ccc21` [Compound 19, 4-[(5,6-Dihydro-5,5-dimethyl-8-(2-pyridyl)-2-naphthalenyl)ethynyl]benzoic acid]: 9.0 % of RA activity, 4% and 659 nM.
With `Cc1cccc(C2=CCC(C)(C)c3ccc(C#Cc4ccc(C(=O)O)cc4)cc32)c1` [Compound 20, 4-[(5,6-Dihydro-5,5-dimethyl-8-(3-methylphenyl)-2-naphthalenyl)ethynyl]benzoic acid], the “Transactivation Assay Efficacy (% of RA activity) RXRβ” value with RXRβ is 0.00 % of RA activity. In addition, on RXRγ, the Emax amounted to 3%. Further, at RARγ, the Kd stood at 34 nM.
Consider `Cc1ccc(C2=CCC(C)(C)c3cc(C(=O)C=Cc4ccc(C(=O)O)cc4)ccc32)cc1` [Compound 101, 4-[3-oxo-3-(7,8-dihydro-5-(4-methylphenyl)-8,8-dimethyl-2-naphthalenyl)-1-propenyl]-benzoic acid], for which, in the assay with RXRβ, the “Transactivation Assay Efficacy (% of RA activity) RXRβ” value is 0.00 % of RA activity. At RXRγ, the Emax turned out to be 3%. On RARγ, the Kd is 637 nM.
Taken in the same sequence, the figures for `CC1(C)CC=C(c2ccc(Cl)cc2)c2cc(C#Cc3ccc(C(=O)O)cc3)ccc21` [Compound 25, 4-[(5,6-Dihydro-5,5-dimethyl-8-(4-chlorophenyl)-2-naphthalenyl)ethynyl]benzoic acid] were 0.00 % of RA activity, 3% and 20 nM.
The matching figures for `CC1(C)CC=C(c2ccc(O)cc2)c2cc(C#Cc3ccc(C(=O)O)cc3)ccc21` [Compound 29, 4-[(5,6-Dihydro-5,5-dimethyl-8-(4-hydroxyphenyl)-2-naphthalenyl)ethynyl]benzoic acid]: 6.00 % of RA activity, 2% and 80 nM.
On to `CCc1ccc(C2=CCC(C)(C)c3ccc(C#Cc4ccc(C(=O)O)cc4)cc32)cc1` [Compound 21, 4-[(5,6-Dihydro-5,5-dimethyl-8-(4-ethylphenyl)-2-naphthalenyl)ethynyl]benzoic acid], for which, in the assay on RXRβ, the “Transactivation Assay Efficacy (% of RA activity) RXRβ” value is 0.00 % of RA activity. Besides, the Emax at RXRγ worked out at 3%. Besides, the Kd at RARγ was found to be 13 nM.
The matching figures for `Cc1ccc(C2=CCC(C)(C)c3ccc(C#Cc4ccc(C(=O)O)cc4)cc32)cn1` [Compound 18, 4-[(5,6-Dihydro-5,5-dimethyl-8-(2-methyl-5-pyridyl)-2-naphthalenyl)ethynyl]benzoic acid]: 10.00 % of RA activity, 1% and 24 nM.
For the compound `Cc1ccc(C2=CCC(C)(C)c3ccc(/C=C/c4ccc(C(=O)O)cc4)cc32)cc1` [Compound 45], the “Transactivation Assay Efficacy (% of RA activity) RXRβ” value with RXRβ is on record as 8.00 % of RA activity. In addition, on RXRγ, the Emax was found to be 0%. In addition, the dissociation constant (Kd) on RARγ is 17 nM.
Taken in the same sequence, the figures for `COc1ccc(C2=CCC(C)(C)c3ccc(C#Cc4ccc(C(=O)O)cc4)cc32)cc1` [Compound 22, 4-[(5,6-Dihydro-5,5-dimethyl-8-(4-methoxyphenyl)-2-naphthalenyl)ethynyl]benzoic acid] were 0.00 % of RA activity, 2% and 27 nM.
The matching figures for `CC(/C=C/C=C(\C)c1ccc2c(c1)C(c1ccc(C)cc1)=CCC2(C)C)=C\C(=O)O` [Compound 52, (E,E,E)-3-methyl-7-(5,6-dihydro-5,5-dimethyl-8-(4-methylphenyl)-2-naphthalenyl)-2,4,6-octatrienoic acid]: 0.00 % of RA activity, 10% and 56 nM.
On to `Cc1ccc(C2=CCC(C)(C)c3ccc(C(=O)Nc4ccc(C(=O)O)cc4)cc32)cc1` [Compound 36, 4-[[(5,6-Dihydro-5,5-dimethyl-8-(4-methylphenyl)-2-naphthalenyl)carbonyl]amino]-benzoic acid], for which the “Transactivation Assay Efficacy (% of RA activity) RXRβ” value in the assay on RXRβ is reported as 7.00 % of RA activity. For the same compound, the Emax at RXRγ came out at 2%.
As to `CC1(C)CC=C(c2cccc(O)c2)c2cc(C#Cc3ccc(C(=O)O)cc3)ccc21` [Compound 28, 4-[(5,6-Dihydro5,5-dimethyl-8-(3-hydroxyphenyl)-2-naphthalenyl)ethynyl]benzoic acid], in the assay with RXRβ, the “Transactivation Assay Efficacy (% of RA activity) RXRβ” value is on record as 0.00 % of RA activity. Further, the Emax at RXRγ was 3%. Also, at RARγ, the Kd was found to be 236 nM.
For the compound `Cc1ccc(C2=CCC(C)(C)c3ccc(C(=S)Nc4ccc(C(=O)O)c(F)c4)cc32)cc1` [Compound 63, 2-fluoro-4-[[(5,6-dihydro-5,5-dimethyl-8-(4-methylphenyl)-2-naphthalenyl)thiocarbonyl]amino]-benzoic acid], in the assay on RXRβ, the “Transactivation Assay Efficacy (% of RA activity) RXRβ” value is on record as 0.00 % of RA activity. Besides, at RXRγ, the Emax came to 1%.
